# Results from paper PMC3187668 (Chemmedchem, 2011).
# Target: PI3Kα (Homo sapiens, UniProt P42336)
# Assay: […]-ATP lipid kinase assay
# Type: biochemical
# Sequence of PI3Kα (P42336 whole entry): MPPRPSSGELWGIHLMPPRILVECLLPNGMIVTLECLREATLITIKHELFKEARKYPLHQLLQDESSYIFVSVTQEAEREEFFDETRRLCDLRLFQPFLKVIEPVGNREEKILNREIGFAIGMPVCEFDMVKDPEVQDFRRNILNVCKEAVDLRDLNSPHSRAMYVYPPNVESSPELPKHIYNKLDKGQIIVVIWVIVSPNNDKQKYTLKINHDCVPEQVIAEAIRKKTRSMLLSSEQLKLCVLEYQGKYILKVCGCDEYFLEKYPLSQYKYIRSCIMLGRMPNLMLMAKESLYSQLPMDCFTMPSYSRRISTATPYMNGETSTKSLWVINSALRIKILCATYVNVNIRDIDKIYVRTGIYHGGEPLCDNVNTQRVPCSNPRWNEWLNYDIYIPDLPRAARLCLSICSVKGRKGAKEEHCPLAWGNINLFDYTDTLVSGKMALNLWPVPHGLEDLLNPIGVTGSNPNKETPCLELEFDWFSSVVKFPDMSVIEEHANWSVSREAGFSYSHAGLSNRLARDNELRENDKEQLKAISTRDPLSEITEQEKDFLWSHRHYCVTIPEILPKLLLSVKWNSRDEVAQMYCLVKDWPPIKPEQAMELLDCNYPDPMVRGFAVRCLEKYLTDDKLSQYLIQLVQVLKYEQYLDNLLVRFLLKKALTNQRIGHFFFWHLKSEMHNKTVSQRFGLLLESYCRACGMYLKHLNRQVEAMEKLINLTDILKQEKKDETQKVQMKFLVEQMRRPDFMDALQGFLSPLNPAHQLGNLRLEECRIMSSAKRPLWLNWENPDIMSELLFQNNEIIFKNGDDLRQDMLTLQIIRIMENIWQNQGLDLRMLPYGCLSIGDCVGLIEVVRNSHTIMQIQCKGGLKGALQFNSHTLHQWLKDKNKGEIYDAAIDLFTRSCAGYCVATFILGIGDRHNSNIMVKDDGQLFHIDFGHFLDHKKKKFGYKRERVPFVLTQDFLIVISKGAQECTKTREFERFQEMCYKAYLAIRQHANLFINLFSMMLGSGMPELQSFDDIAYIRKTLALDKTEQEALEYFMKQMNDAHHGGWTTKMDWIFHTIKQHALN
# Sequence of PI3Kα (P27986 2-724 partner): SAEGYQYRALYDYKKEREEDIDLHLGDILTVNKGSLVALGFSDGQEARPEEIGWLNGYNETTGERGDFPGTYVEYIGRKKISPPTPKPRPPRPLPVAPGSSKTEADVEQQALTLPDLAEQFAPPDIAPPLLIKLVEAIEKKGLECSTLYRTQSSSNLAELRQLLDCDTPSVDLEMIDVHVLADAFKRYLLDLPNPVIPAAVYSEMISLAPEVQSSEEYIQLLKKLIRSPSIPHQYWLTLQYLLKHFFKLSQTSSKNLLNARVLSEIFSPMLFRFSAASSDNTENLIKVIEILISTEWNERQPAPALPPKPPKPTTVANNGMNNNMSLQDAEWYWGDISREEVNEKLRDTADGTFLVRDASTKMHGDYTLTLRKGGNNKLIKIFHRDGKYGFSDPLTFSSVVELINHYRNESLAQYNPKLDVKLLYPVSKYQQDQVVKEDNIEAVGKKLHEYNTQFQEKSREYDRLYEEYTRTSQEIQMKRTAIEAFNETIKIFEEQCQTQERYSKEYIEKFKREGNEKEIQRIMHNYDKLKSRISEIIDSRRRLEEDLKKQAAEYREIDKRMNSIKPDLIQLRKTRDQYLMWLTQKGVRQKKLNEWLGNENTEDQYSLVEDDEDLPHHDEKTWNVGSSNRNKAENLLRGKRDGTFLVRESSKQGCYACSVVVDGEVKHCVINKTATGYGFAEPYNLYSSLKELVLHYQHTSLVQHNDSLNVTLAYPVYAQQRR
smiles,measurement,value
"O=C1NC(=S)SC1=Cc1ccc2nccnc2c1 [compound 19, 19]",IC50,3 nM
